Data from publication PMC6746079, “Development of Pyridine-based Inhibitors for the Human Vaccinia-related Kinases 1 and 2” (ACS Medicinal Chemistry Letters, 2019).

Test system: HeLa cells
Format: cell-based, human
Conditions: MTT, concluding statement

For `Cc1ncc(-c2cc(F)c(O)c(F)c2)cc1-c1cc(F)c(O)c(F)c1` [compound 26], the “toxicity to human cells” value was “not overtly toxic”.
